The results in this text go back to patent US20250002486A1, “CYCLIC SULFONAMIDE RIBONUCLEOTIDE REDUCTASE (RNR) INHIBITORS AND USES THEREOF” (Boundless Bio, Inc., priority 2021, published 2025).

Bounds are passed on as bounds.

Assay [1] has as its target RNR (RNR1:RNR2 1:1) (Homo sapiens (Human), UniProt P23921). Description: RNR enzyme activity, rapid-fire mass spectrometry (RF/MS) assay. The class given is biochemical. Particulars: RNR 50 nM, 1:1 RNR1:RNR2; CDP 5 μM, ATP 1 mM; 37° C., 45 min; compounds screened up to 50 μM. As to the method:
A rapid-fire mass spectrometry (RF/MS) assay was used to assess RNR enzyme activity using a 384 well plate and a robotic platform.
The plate layout included two validated reference compounds (Triapine (3-AP) and Hydroxyurea (HU)): • A dose response in duplicate; top concentration: 5 μM (3-AP) and 250 μM (HU), semi-log • dilutions. • Spike wells in triplicate randomly spotted at four concentrations: • 250 μM, 100 μM, 30 μM and 2 μM for HU • 5 μM, 2 μM, 0.6 μM and 0.04 μM for 3-AP
First, the multidrop pipes were saturated for 30 minutes with enzymatic solution. Then 30 μL of Stop solution was distributed in column 24. Next, 15 μL of enzyme was distributed in column 1 to 24. Next, a pre-incubation step of 15 minutes at room temperature occurred, followed by distribution of 15 μL of substrate solution (column 1 to 24). Next, the plate was incubated for 45 minutes at 37° C. 30 μL of Stop solution was distributed to columns 1 to 23.
The final parameters for the enzyme reactions were: • Incubation: 37° C., 45 min • [CDP]: 5 μM; [ATP]: 1 mM; [NADPH]: No • [RNR]final: 50 nM with 1:1 (RNR1:RNR2) ratio • Final volume: 30 μL • Stop solution: 6% HCOOH containing 2 μM of 15

In assay [2] the test system is pCHK1 (S345) in Colo320 DM cells. Description: Alphalisa assay: pCHK1 (S345) detection in Colo320 DM cells. The following applies: Homo sapiens, COLO 320DM, compound incubation overnight (approximately 16 hours), pCHK1 (S345) AlphaLisa Sure Fire kit. Type of assay: cell-based, human. Here is the method:
Colo320 DM cells (ATCC #CCL-220, derived from human colorectal adenocarcinoma, Dukes' type C) were seeded on a 96-well, cell culture treated assay plate at a density of 50,000 cells/well in 200 μL of RPMI-1640 media supplemented with 10% Fetal Bovine Serum and incubated at 37 degrees Celsius overnight. The following day, test compound dilutions were added directly to the plated cells by a Tecan digital dispenser to a final DMSO concentration of <0.5%. and incubated at 37 degrees Celsius overnight (approximately 16 hours). The following day all cull culture media was removed from the cells. 75 μL of 1× AlphaLisa lysis buffer was added to each well and plates were agitated on a shaker for 30 minutes at room temperature. The lysis of cells and detection of pCHK1 (S345) were performed with regents contained within the AlphaLisa Sure Fire assay kit (Perkin Elmer #ALSU-PCHK1-A) according to the manufacturer's instructions. 10 μL of each lysate was then transferred to a white, 384-well assay plate (Perkin Elmer #6008280). 5 μL of Acceptor mix was then added to each well of lysate in the white, 384-well assay plate and incubated in the dark at room temperature for 60 minutes. 5 μL of Donor mix was then added to each well of the white, 384-well assay plate in subdued light and incubated at room temperature for 60 minutes. Plates were read on an Alpha Technology-compatible plate reader using standard AlphaLisa settings.
In general terms: In Alpha technology, singlet oxygen from a donor bead excites a nearby acceptor bead.

Sequence of RNR (RNR1:RNR2 1:1) (P23921 whole entry): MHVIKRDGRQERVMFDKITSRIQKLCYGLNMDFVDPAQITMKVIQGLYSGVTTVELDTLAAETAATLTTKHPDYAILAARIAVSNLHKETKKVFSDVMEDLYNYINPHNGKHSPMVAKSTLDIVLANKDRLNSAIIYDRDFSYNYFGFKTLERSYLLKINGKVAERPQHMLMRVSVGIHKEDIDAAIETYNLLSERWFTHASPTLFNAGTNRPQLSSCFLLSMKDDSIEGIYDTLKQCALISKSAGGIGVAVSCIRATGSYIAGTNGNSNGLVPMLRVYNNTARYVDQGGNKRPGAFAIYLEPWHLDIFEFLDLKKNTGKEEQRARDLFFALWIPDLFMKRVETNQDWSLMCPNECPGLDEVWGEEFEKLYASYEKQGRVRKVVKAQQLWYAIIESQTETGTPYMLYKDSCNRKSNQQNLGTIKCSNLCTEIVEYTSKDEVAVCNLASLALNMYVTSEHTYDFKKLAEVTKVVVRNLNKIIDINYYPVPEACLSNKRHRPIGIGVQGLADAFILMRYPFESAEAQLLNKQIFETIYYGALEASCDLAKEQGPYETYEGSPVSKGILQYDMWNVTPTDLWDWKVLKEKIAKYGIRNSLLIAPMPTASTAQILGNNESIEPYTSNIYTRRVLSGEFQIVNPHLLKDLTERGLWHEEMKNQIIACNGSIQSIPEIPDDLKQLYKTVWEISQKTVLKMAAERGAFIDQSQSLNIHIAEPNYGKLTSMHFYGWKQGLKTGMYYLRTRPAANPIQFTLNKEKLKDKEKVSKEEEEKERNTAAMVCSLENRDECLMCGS

On to `Cc1ccc(F)c(C(C)[C@@H](c2n[nH]c(=O)o2)N2CC(C)c3cc(Cl)ccc3S2(=O)=O)c1C` (stereo partly drawn) [Example 20, 5-((1S)-1-(6-chloro-4-methyl-1,1-dioxido-3,4-dihydro-2H-benzo[e][1,2]thiazin-2-yl)-2-(6-fluoro-2,3-dimethylphenyl)propyl)-1,3,4-oxadiazol-2(3H)-one], for which the IC50 in assay [1] is at most 0.1 µM; in assay [2], at most 5 µM.
Take `Cc1ccc(F)c(C(C)[C@@H](c2n[nH]c(=O)o2)N2CC(C)(C)c3cc(Cl)ccc3S2(=O)=O)c1C` (stereo partly drawn) [Example 21, 5-((1S)-1-(6-chloro-4,4-dimethyl-1,1-dioxido-3,4-dihydro-2H-benzo[e][1,2]thiazin-2-yl)-2-(6-fluoro-2,3-dimethylphenyl)propyl)-1,3,4-oxadiazol-2(3H)-one]: the concentration for half-maximal inhibition (IC50) in assay [1] is 1 to 10 µM; in assay [2], above 50 µM.
The matching figures for `Cc1ccc(F)c([C@@H](C)[C@@H](c2n[nH]c(=O)o2)N2CC(F)(F)c3cc(Cl)ccc3S2(=O)=O)c1C` [Example 22, 5-((1S,2R)-1-(6-chloro-4,4-difluoro-1,1-dioxido-3,4-dihydro-2H-benzo[e][1,2]thiazin-2-yl)-2-(6-fluoro-2,3-dimethylphenyl)propyl)-1,3,4-oxadiazol-2(3H)-one]: 0.1 to 1 µM and 5 to 10 µM.
For `Cc1ccc(F)c([C@@H](C)[C@@H](c2n[nH]c(=O)o2)N2CCc3c(Cl)cccc3S2(=O)=O)c1C` [Example 23, 5-((1S,2R)-1-(5-chloro-1,1-dioxido-3,4-dihydro-2H-benzo[e][1,2]thiazin-2-yl)-2-(6-fluoro-2,3-dimethylphenyl)propyl)-1,3,4-oxadiazol-2(3H)-one] the same measures were 0.1 to 1 µM and 10 to 50 µM.
The matching figures for `Cc1ccc(F)c([C@@H](C)[C@@H](c2n[nH]c(=O)o2)N2CCc3nc(Cl)ccc3S2(=O)=O)c1C` [Example 24, 5-((1S,2R)-1-(6-chloro-1,1-dioxido-3,4-dihydro-2H-pyrido[2,3-e] [1,2]thiazin-2-yl)-2-(6-fluoro-2,3-dimethylphenyl)propyl)-1,3,4-oxadiazol-2(3H)-one]: at most 0.1 µM and at most 5 µM.
For the compound `Cc1ccc(F)c([C@@H](C)[C@@H](c2n[nH]c(=O)o2)N2CC(C)(O)c3cc(Cl)ccc3S2(=O)=O)c1C` (stereo partly drawn) [Example 25, 5-((1S,2R)-1-(6-chloro-4-hydroxy-4-methyl-1,1-dioxido-3,4-dihydro-2H-benzo[e][1,2]thiazin-2-yl)-2-(6-fluoro-2,3-dimethylphenyl)propyl)-1,3,4-oxadiazol-2(3H)-one], the figures for the IC50 in assay [1] and in assay [2] were at most 0.1 µM and 10 to 50 µM, respectively.
On to `Cc1ccc(F)c(C(C)[C@@H](c2n[nH]c(=O)o2)N2C[C@H](O)[C@H](O)c3cc(Cl)ccc3S2(=O)=O)c1C` (stereo partly drawn) [Example 26, 5-((1S)-1-((4S, 5R)-7-chloro-4,5-dihydroxy-1,1-dioxido-4,5-dihydrobenzo [f][1,2]thiazepin-2(3H)-yl)-2-(6-fluoro-2,3-dimethylphenyl)propyl)-1,3,4-oxadiazol-2(3H)-one], for which the results for the half-maximal inhibitory concentration (IC50) in assay [1] and in assay [2] were at most 0.1 µM and 10 to 50 µM, respectively.
As for `Cc1ccc(F)c([C@@H](C)[C@@H](c2n[nH]c(=O)o2)N2CCc3cc(Cl)ncc3S2(=O)=O)c1C` [Example 27, 5-((1S,2R)-1-(6-chloro-1,1-dioxido-3,4-dihydro-2H-pyrido[4,3-e] [1,2]thiazin-2-yl)-2-(6-fluoro-2,3-dimethylphenyl)propyl)-1,3,4-oxadiazol-2(3H)-one], the IC50 is 0.1 to 1 µM in assay [1] and above 50 µM in assay [2].

As usually defined, the IC50 is the concentration that inhibits the measured activity by half. High values mean a need for much substance, low ones inhibition by little substance.
